The test system of assay [1] is Abutilon theophrasti. Description: Herbicidal post-emergence action (Experimental Part 2, C). The settings on record: post-emergence (Part 2), application rate 320 g/ha, rated visually after about 3 weeks. It counts as in vivo. On the procedure: (§1) Seeds of mono- and dicotyledonous weed plants were placed in plastic pots in sandy loam soil (doubly sown with in each case one species of mono- or dicotyledonous weed plants per pot), covered with soil and cultivated in a greenhouse under controlled growth conditions. 2 to 3 weeks after sowing, the test plants were treated at the one-leaf stage. The compounds of the invention, formulated in the form of wettable powders (WP) or as emulsion concentrates (EC), were applied onto the green parts of the plants as aqueous suspension or emulsion with addition of 0.5% additive at a water application rate of 600 liters per hectare (converted). After the test plants had been kept in the greenhouse under optimum growth conditions for about 3 weeks, the activity of the preparations was rated visually in comparison to untreated controls. For example, 100% activity=the plants have died, 0% activity=like control plants. Tables C1 to C8 below show the effects of selected compounds of the general formula (I) according to Tables I.1 to I.116 on various harmful plants and an application rate corresponding to 1280 g/ha or 320 g/ha, which were obtained by the experimental procedure mentioned above.

For assay [2], the system named is Amaranthus retroflexus. The description is as above. In kind it is in vivo. The following applies: post-emergence (Part 2), application rate 320 g/ha, rated visually after about 3 weeks. On the procedure:
as §1

In assay [3] the test system is Echinochloa crus-galli. The assay is described as above. In kind it is in vivo. The following applies: post-emergence (Part 2), rated visually after about 3 weeks. On the procedure: as §1
In assay [4] the test system is Lolium rigidum. Described as above. It counts as in vivo. The settings on record: post-emergence (Part 2), rated visually after about 3 weeks. The procedure:
as §1

In assay [5] the test system is Matricaria inodora. The description is as above. It counts as in vivo. The following applies: post-emergence (Part 2), application rate 320 g/ha, rated visually after about 3 weeks. The procedure:
as §1

For assay [6], the system named is Poa annua. The description is as above. It counts as in vivo. The settings on record: post-emergence (Part 2), application rate 320 g/ha, rated visually after about 3 weeks. The procedure: as §1
Assay [7] deals with Setaria viridis. Described as above. In kind it is in vivo. The settings on record: post-emergence (Part 2), application rate 320 g/ha, rated visually after about 3 weeks. The procedure:
as §1

The test system of assay [8] is Stellaria media. Described as above. In kind it is in vivo. The settings on record: post-emergence (Part 2), application rate 320 g/ha, rated visually after about 3 weeks. On the procedure:
as §1

The test system of assay [9] is Abutilon theophrasti. In words: Herbicidal pre-emergence action (Experimental Part 2, D). In kind it is in vivo. The following applies: pre-emergence (Part 2), application rate 320 g/ha, scored visually after about 3 weeks. From the text:
(§2) Seeds of mono- and dicotyledonous weed plants were placed in plastic pots in sandy loam soil (doubly sown with in each case one species of mono- or dicotyledonous weed plants per pot) and covered with soil. The compounds of the invention, formulated in the form of wettable powders (WP) or as emulsion concentrates (EC), were then applied onto the surface of the covering soil as aqueous suspension or emulsion with addition of 0.5% additive at a water application rate of 600 liters per hectare (converted). After the treatment, the pots are placed in a greenhouse and kept under good growth conditions for the trial plants. After about 3 weeks, the effect of the preparations was scored visually in comparison with untreated controls as percentages. For example, 100% activity=the plants have died, 0% activity=like control plants. Tables D1 to D8 below show the effects of selected compounds of the general formula (I) according to Tables I.1 to I.116 on various harmful plants and an application rate corresponding to 1280 g/ha or 320 g/ha, which were obtained by the experimental procedure mentioned above.

Assay [10] has as its system Amaranthus retroflexus. Described as above. The following applies: pre-emergence (Part 2), application rate 320 g/ha, scored visually after about 3 weeks. In kind it is in vivo.
Source text: as §2

Assay [11] concerns Echinochloa crus-galli. The assay is described as above. The settings on record: pre-emergence (Part 2), application rate 320 g/ha, scored visually after about 3 weeks. It counts as in vivo.
Source text: as §2

The subject of assay [12] is Lolium rigidum. The assay is described as above. It counts as in vivo. The settings on record: pre-emergence (Part 2), application rate 320 g/ha, scored visually after about 3 weeks.
Source text: as §2

Assay [13] has as its system Matricaria inodora. The description is as above. In kind it is in vivo. The settings on record: pre-emergence (Part 2), application rate 320 g/ha, scored visually after about 3 weeks.
Source text: as §2

For assay [14], the system named is Poa annua. The description is as above. The settings on record: pre-emergence (Part 2), application rate 320 g/ha, scored visually after about 3 weeks. In kind it is in vivo.
Source text: as §2

Assay [15] concerns Setaria viridis. Described as above. It counts as in vivo. The settings on record: pre-emergence (Part 2), application rate 320 g/ha, scored visually after about 3 weeks.
Source text: as §2

In assay [16] the test system is Stellaria media. The assay is described as above. It counts as in vivo. The following applies: pre-emergence (Part 2), application rate 320 g/ha, scored visually after about 3 weeks.
Source text: as §2

Assay [17] has as its target T1, photosystem II (PS II) (Spinacia oleracea, UniProt P69560).
T1 construct: the chloroplasts were osmotically ruptured and the thylakoid membranes were then obtained by centrifugation; from tissue; host or cells: thylakoid membranes from fresh spinach leaves
In words: Measurement of the PS II activity in thylakoid membranes (DCPIP reduction, Experimental Part 3, Table E1). It counts as biochemical. The following applies: spinach thylakoid membranes. The procedure: Cooled fresh spinach leaves were comminuted and homogenized in 50 mM phosphate buffer, pH 6.8. 10 mM KCl, 0.34 M sucrose (sucrose buffer) (blender, 1 g of plant material/ml). The homogenate was subsequently filtered through 4 layers of Miracloth and the chloroplasts were isolated by centrifugation, i.e. 10 min of centrifugation at 4400×g (4° C.). The sediment was suspended in 25 ml of sucrose buffer and re-centrifuged for 10 min at 4400×g (4° C.). The sediment was then suspended in 40 ml of 50 mM phosphate buffer, pH 6.8, 10 mM KCl, without sucrose. In this step, the chloroplasts were osmotically ruptured and the thylakoid membranes were then obtained by centrifugation (10 min, 4400×g, 4° C.). The membrane sediment was finally suspended in about 20 ml of 50 mM phosphate buffer, pH 6.8, 10 mM KCl. Following protein determination and activity determination, the membrane suspension was divided into aliquots and frozen in liquid nitrogen. The aliquots were stored at −80° C. Under these conditions, the photosystem II preparation was storage stable for at least three months. The activity determination of photosystem II (PS II) was then carried out using the following test principle: The electron transfer from PS II to an artificial electron acceptor, 2,6-dichlorophenolindophenol (DCPIP), was measured with exposure to light. The concentration of the blue oxidized form of DCPIP was determined spectrophotometrically at wavelength λ=595 nm. […] The activity determination was carried out in microtiter plates (96 cavities) in a reaction volume of 200 μl. Here, 155 μl of dilute membrane suspension were initially charged in 50 mM of phosphate buffer, pH 6.8, 10 mM KCl. Depending on the activity of the PS II preparation, the dilution was adjusted such that the measurement of the decrease in absorption (λ=595 nm) was linear for at least 10 min. In each case 5 μl solution of the test compounds of a concentration of 100 μM in DMSO were added to the enzyme suspension; controls contained 5 μl DMSO; the final concentration of DMSO in the reaction batch was thus 2.5% (v/v); this concentration had no adverse effect on the enzymatic activity. On each microtiter plate, a known PS II inhibitor, for example metribuzin, was used as standard, which allowed the quality of the PS II test to be assessed. The reaction was started by addition of 40 μl DCPIP solution (600 μM in distilled water); the final concentration of DCPIP was 120 μM. Measurement of absorption was carried out over a period of 10 min at 22° C. and with exposure to light. Using metribuzin as comparative substance, the results for the efficacy of the compounds of the general formula (I) at 100 μM are stated in the table below using the following classification: ++++ (inhibition≥90%), +++ (90%>inhibition≥70%), ++ (70%>inhibition≥50%), + (50%>inhibition≥30%).
Effects of selected compounds of the general formula (I) according to the following table E1: […]

As for `CCC(=O)OC1C=C(C)C(=O)N1c1cc(C(C)(C)C)no1` (stereo not shown) [I.6-290], the “Abutilon theophrasti, herbicidal activity” value (“Abutilon theophrasti” for short) in [1] and in assay [9] was 100% in each case. Further, the “Amaranthus retroflexus, herbicidal activity” value (shortened to “Amaranthus retroflexus”) in [2] and in assay [10] was 100% each time. Also, the results for the “Echinochloa crus-galli, herbicidal activity” value (from here on “Echinochloa crus-galli”) in [3] (application rate 1280 g/ha) and in [11] were 100% and 90%, respectively. For the same compound, the “Lolium rigidum, herbicidal activity” value in [4] (application rate 1280 g/ha) and in assay [12] was 90% throughout. Moreover, the “Matricaria inodora, herbicidal activity” value in assay [5] and in [13] was 100% throughout. Moreover, the “Poa Annua, herbicidal activity” value in assay [6] and in assay [14] was 100% throughout. Also, the “Setaria viridis, herbicidal activity” value is 100% in assay [7] and 90% in assay [15]. Besides, the “Stellaria media, herbicidal activity” value in assay [8] and in [16] was 100% in each case.
Take `CC1=CC(O)N(c2cc(C(C)(C)C)on2)C1=O` (stereo not shown) [I.2-162, 5-hydroxy-3-methyl-1-(5-tert-butyl-1,2-isoxazol-3-yl)-1,5-dihydro-2H-pyrrol-2-one]: the “Abutilon theophrasti” value in assay [1] and in assay [9] was 100% each time. The “Amaranthus retroflexus” value in assay [2] and in assay [10] was 100% each time. Besides, the “Echinochloa crus-galli” value in assay [3] (application rate 320 g/ha) and in [11] was 100% in each case. Also, the “Lolium rigidum, herbicidal activity” value in [4] (application rate 320 g/ha) and in [12] was 90% throughout. In addition, the “Matricaria inodora, herbicidal activity” value in assay [5] and in [13] was 100% in each case. In addition, the “Poa Annua, herbicidal activity” value in assay [6] and in [14] was 100% in each case. Further, the “Setaria viridis, herbicidal activity” value in assay [7] and in [15] was 100% in each case. Moreover, the “Stellaria media, herbicidal activity” value in assay [8] and in [16] was 100% in each case. In assay [17], the “Effect (inhibition of PS II activity)” value is on record as “++++ (inhibition≥90%)”.
For the compound `CC1=CC(O)N(c2noc(C(C)(C)C)c2C)C1=O` (stereo not shown) [I.2-177], the “Abutilon theophrasti” value in assay [1] and in [9] was 100% throughout. Further, the “Amaranthus retroflexus” value in [2] was 100%; in assay [10], 90%. Further, the “Echinochloa crus-galli” value in assay [3] (application rate 320 g/ha) and in [11] was 100% in each case. For the same compound, the “Lolium rigidum, herbicidal activity” value in assay [4] (application rate 320 g/ha) and in assay [12] was 90% each time. The “Matricaria inodora, herbicidal activity” value in assay [5] and in assay [13] was 100% throughout. Moreover, the “Poa Annua, herbicidal activity” value in assay [6] and in assay [14] was 100% in each case. For the same compound, the “Stellaria media, herbicidal activity” value in assay [8] and in assay [16] was 100% throughout. For the same compound, the “Setaria viridis, herbicidal activity” value in assay [15] was 100%. Further, the “Effect (inhibition of PS II activity)” value in [17] is reported as “++++ (inhibition≥90%)”.

The values above are taken from patent publication US20200079765A1, “SUBSTITUTED HETEROARYL PYRROLONES AND SALTS THEREOF AND USE THEREOF AS HERBICIDAL ACTIVE SUBSTANCES” (Bayer CropScience Aktiengesellschaft, priority 2016, published 2020).
